Experimental data as given in paper PMC3946379 (Archives of biochemistry and biophysics, 2013).

Target: Aspartate aminotransferase (AAT) (Escherichia coli, UniProt P00509)
Assay: N-15 NMR of crystalline enzyme
Type: binding
Details: PLP form, low pH; closed conformation; own earlier work reviewed

Sequence of Aspartate aminotransferase (AAT) (P00509 whole entry): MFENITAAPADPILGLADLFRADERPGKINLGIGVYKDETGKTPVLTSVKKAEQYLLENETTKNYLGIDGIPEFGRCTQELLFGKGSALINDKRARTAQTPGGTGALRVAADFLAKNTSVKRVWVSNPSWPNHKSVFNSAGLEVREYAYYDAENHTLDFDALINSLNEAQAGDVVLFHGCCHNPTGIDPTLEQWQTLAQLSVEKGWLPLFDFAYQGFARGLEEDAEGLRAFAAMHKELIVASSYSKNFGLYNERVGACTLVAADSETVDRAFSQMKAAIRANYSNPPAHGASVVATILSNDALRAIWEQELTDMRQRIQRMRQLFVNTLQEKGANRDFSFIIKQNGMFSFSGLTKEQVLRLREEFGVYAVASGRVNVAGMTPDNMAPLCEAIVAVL

SMILES: O=C(O)/C=C\C(=O)O [maleate]
- N-15 NMR of crystalline enzyme: In crystalline samples of both the unliganded and maleate-liganded enzyme forms at low pH
